The values that follow come from patent US20180179167A1, “Nrf2 REGULATORS” (GlaxoSmithKline Intellectual Property Development Limited, priority 2015, published 2018).

For orientation: EC50 means the midpoint of the concentration-response curve.

This experiment has as its system NQO1 specific enzyme activity in BEAS-2B cells. Nature of the experiment: BEAS-2B NQO1 MTT Assay. The format is cell-based. As to conditions: Homo sapiens, EC50 of NQO1 specific activity induction, 48 hours with compound. The source says: NAD(P)H:quinone oxidoreductase 1 (NQO1), also called DT diaphorase, is a homodimeric FAD-containing enzyme that catalyzes obligatory NAD(P)H-dependent two-electron reductions of quinones and protects cells against the toxic and neoplastic effects of free radicals and reactive oxygen species arising from one-electron reductions. The transcription of NQO1 is finely regulated by Nrf2, and thus NQO1 activity is a good marker for Nrf2 activation. On day one, frozen BEAS-2B cells (ATCC) are thawed in a water bath, counted, and re-suspended at a concentration of 250,000 cells/mL. Fifty microliters of cells are plated in 384 well black clear-bottomed plates. Plates are incubated at 37° C., 5% CO2 overnight. On day two, plates are centrifuged and 50 nL of compound or controls are added to the cells. Plates are then incubated at 37° C., 5% CO2 for 48 hours. On day four, medium is aspirated from the plate and crude cell lysates are made by adding 13 uL of 1× Cell Signaling Technologies lysis buffer with 1 Complete, Mini, EDTA-free Protease Inhibitor Tablet (Roche) for each 10 mL of lysis buffer . After lysis plates are incubated for 20 minutes at room temperature. Two microliters of lysate are removed for use in Cell Titer Glo assay (Promega) and MTT cocktail is prepared (Prochaska et. al. 1998) for measurement of NQO1 activity. Fifty microliters of MTT cocktail is added to each well, plate is centrifuged, and analyzed on an Envision plate reader (Perkin Elmer) using Absorbance 570 nm label for 30 minutes. Product formation is measured kinetically and the EC50 of NQO1 specific activity induction is calculated by plotting the change in absorbance (Delta OD/min) versus the log of compound concentration followed by 3-parameter fitting.
EC50s <1 nM (+++++), EC50s 10 nM-1 nM (++++), EC50s 10-100 nM (+++), EC50s 100 nM-1 uM (++), EC50s 1-10 uM (+), EC50s >10 uM (−), or were not determined (ND).
Take `Cc1c(C(CC(=O)O)c2ccc(Cl)c(CN(C)C(=O)OC(C)(C)C)c2)ccc2c1nnn2C` (centres unmarked) [Example 1, 3-[3-({[(tert-Butoxy)carbonyl](methyl)amino}methyl)-4-chlorophenyl]-3-(1,4-dimethyl-1H-1,2,3-benzotriazol-5-yl)propanoic acid]: the EC50 is 100 to 1000 nM. The result for `CN(Cc1cc(C(CC(=O)O)c2ccc3c(c2)nnn3C)ccc1Cl)C(=O)OC1CCCC1` (centres unmarked) [Example 2, 3-[4-Chloro-3-({[(cyclopentyloxy)carbonyl](methyl)amino}methyl)phenyl]-3-(1-methyl-1H-1,2,3-benzotriazol-5-yl)propanoic acid] reads 1000 to 10000 nM; that for `CCC(C)OC(=O)N(C)Cc1cc(C(CC(=O)O)c2ccc3c(c2)nnn3C)ccc1Cl` (centres unmarked) [Example 3, 3-[3-({[(Butan-2-yloxy)carbonyl](methyl)amino}methyl)-4-chlorophenyl]-3-(1-methyl-1H-1,2,3-benzotriazol-5-yl)propanoic acid], 1000 to 10000 nM.

On to `COc1cc(C(CC(=O)O)c2ccc(C)c(CN(C)C(=O)OC(C)(C)C)c2)cc2nnn(C)c12` (centres unmarked) [Example 4, 3-[3-({[(tert-Butoxy)carbonyl](methyl)amino}methyl)-4-methylphenyl]-3-(7-methoxy-1-methyl-1H-1,2,3-benzotriazol-5-yl)propanoic acid], for which the EC50 is 1000 to 10000 nM. Under `CN(Cc1cc(C(CC(=O)O)c2ccc3c(c2)nnn3C)ccc1Cl)C(=O)OC1CCCCC1` (centres unmarked) [Example 5, 3-(4-Chloro-3-((((cyclohexyloxy)carbonyl)(methyl)amino)methyl)phenyl)-3-(1-methyl-1H-benzo[d][1,2,3]triazol-5-yl)propanoic acid] stands 1000 to 10000 nM; under `COc1cc(C(CC(=O)O)c2ccc(Cl)c(CN(C)C(=O)OC(C)(C)C)c2)cc2nnn(C)c12` (centres unmarked) [Example 6, 3-(3-(((tert-Butoxycarbonyl)(methyl)amino)methyl)-4-chlorophenyl)-3-(7-methoxy-1-methyl-1H-benzo[d][1,2,3]triazol-5-yl)propanoic acid], 100 to 1000 nM. Under `Cc1ccc(C(CC(=O)O)c2ccc3c(c2)nnn3C)cc1OCC(=O)N(C)C` (centres unmarked) [Example 7, 3-(3-(2-(Dimethylamino)-2-oxoethoxy)-4-methylphenyl)-3-(1-methyl-1H-benzo[d][1,2,3]triazol-5-yl)propanoic acid] stands 1000 to 10000 nM; under `Cc1ccc(C(CC(=O)O)c2ccc3c(nnn3C)c2C)cc1CN(C)C(=O)Oc1ccc([N+](=O)[O-])cc1` (centres unmarked) [Example 8, 3-(1,4-Dimethyl-1H-benzo[d][1,2,3]triazol-5-yl)-3-(4-methyl-3-((methyl((4-nitrophenoxy)carbonyl)amino)methyl)phenyl)propanoic acid], 1000 to 10000 nM; under `COc1cc(C(CC(=O)O)c2ccc(Cl)c(CN(C)C(=O)OC3CCCC3)c2)cc2nnn(C)c12` (centres unmarked) [Example 9, 3-(4-Chloro-3-((((cyclopentyloxy)carbonyl)(methyl)amino)methyl)phenyl)-3-(7-methoxy-1-methyl-1H-benzo[d][1,2,3]triazol-5-yl)propanoic acid], 1000 to 10000 nM.

For the molecule `COCC(C)(C)OC(=O)N(C)Cc1cc(C(CC(=O)O)c2ccc3c(nnn3C)c2C)ccc1C` (centres unmarked) [Example 10], the EC50 lay in the range of 1000 to 10000 nM.

On to `CC(=O)N(Cc1cc(C(CC(=O)O)c2ccc3c(nnn3C)c2C)ccc1C)CC1CCCCC1` (centres unmarked) [Example 11, 3-(3-((N-(Cyclohexylmethyl)acetamido)methyl)-4-methylphenyl)-3-(1,4-dimethyl-1H-benzo[d][1,2,3]triazol-5-yl)propanoic acid], for which the EC50 lay within 1000 to 10000 nM. The result for `CC(=O)N(Cc1ccccc1)Cc1cc(C(CC(=O)O)c2ccc3c(nnn3C)c2C)ccc1C` (centres unmarked) [Example 12, 3-(3-((N-Benzylacetamido)methyl)-4-methylphenyl)-3-(1,4-dimethyl-1H-benzo[d][1,2,3]triazol-5-yl)propanoic acid] reads 1000 to 10000 nM; that for `CC(=O)N(Cc1cccc(C)c1)Cc1cc(C(CC(=O)O)c2ccc3c(nnn3C)c2C)ccc1C` (centres unmarked) [Example 13, 3-(1,4-Dimethyl-1H-benzo[d][1,2,3]triazol-5-yl)-3-(4-methyl-3-((N-(3-methylbenzyl)acetamido)methyl)phenyl)propanoic acid], 1000 to 10000 nM; that for `CC(=O)N(Cc1cc(C(CC(=O)O)c2ccc3c(nnn3C)c2C)ccc1C)Cc1cccc(C)c1C` (centres unmarked) [Example 14, 3-(1,4-Dimethyl-1H-benzo[d][1,2,3]triazol-5-yl)-3-(3-((N-(2,3-dimethylbenzyl)acetamido)methyl)-4-methylphenyl)propanoic acid], 1000 to 10000 nM.

`COc1ccc(CN(Cc2cc(C(CC(=O)O)c3ccc4c(nnn4C)c3C)ccc2C)C(C)=O)cc1` (centres unmarked) [Example 15, 3-(1,4-Dimethyl-1H-benzo[d][1,2,3]triazol-5-yl)-3-(3-((N-(4-methoxybenzyl)acetamido)methyl)-4-methylphenyl)propanoic acid]: the EC50 is 1000 to 10000 nM. On to `CCc1ccc(CN(Cc2cc(C(CC(=O)O)c3ccc4c(nnn4C)c3C)ccc2C)C(C)=O)cc1` (centres unmarked) [Example 16, 3-(1,4-Dimethyl-1H-benzo[d][1,2,3]triazol-5-yl)-3-(3-((N-(4-ethylbenzyl)acetamido)methyl)-4-methylphenyl)propanoic acid], for which the EC50 is 1000 to 10000 nM. The result for `CCC1CCC(CN(Cc2cc(C(CC(=O)O)c3ccc4c(nnn4C)c3C)ccc2C)C(C)=O)CC1` (centres unmarked) [Example 17, 3-(1,4-Dimethyl-1H-benzo[d][1,2,3]triazol-5-yl)-3-(3-((N-((4-ethylcyclohexyl)methyl)acetamido)methyl)-4-methylphenyl)propanoic acid] reads 10 to 100 nM; that for `Cc1ccc(C(CC(=O)O)c2ccc3c(nnn3C)c2C)cc1CN(CC1CCCCC1)C(N)=O` (centres unmarked) [Example 18, 3-(3-((1-(Cyclohexylmethyl)ureido)methyl)-4-methylphenyl)-3-(1,4-dimethyl-1H-benzo[d][1,2,3]triazol-5-yl)propanoic acid], 1000 to 10000 nM. Take `CCC1CCC(CN(Cc2cc(C(CC(=O)O)c3ccc4c(nnn4C)c3C)ccc2C)C(N)=O)CC1` (centres unmarked) [Example 19, 3-(1,4-Dimethyl-1H-benzo[d][1,2,3]triazol-5-yl)-3-(3-((1-((4-ethylcyclohexyl)methyl)ureido)methyl)-4-methylphenyl)propanoic acid]: the EC50 fell in the range of 1000 to 10000 nM. On to `COc1cc(C(CC(=O)O)c2ccc(C)c(CN(CC3CCCCC3)C(C)=O)c2)cc2nnn(C)c12` (centres unmarked) [Example 20, 3-(3-((N-(Cyclohexylmethyl)acetamido)methyl)-4-methylphenyl)-3-(7-methoxy-1-methyl-1H-benzo[d][1,2,3]triazol-5-yl)propanoic acid], for which the EC50 was 100 to 1000 nM. The result for `CCC1CCC(CN(Cc2cc(C(c3ccc4c(nnn4C)c3C)C(C)(C)C(=O)O)ccc2C)C(N)=O)CC1` (centres unmarked) [Example 22, 3-(1,4-Dimethyl-1H-benzo[d][1,2,3]triazol-5-yl)-3-(3-((1-((4-ethylcyclohexyl)methyl)ureido)methyl)-4-methylphenyl)-2,2-dimethylpropanoic acid] reads 1 to 10 nM.

As for `Cc1ccc([C@@H](c2ccc3c(nnn3C)c2C)C(C)(C)C(=O)O)cc1CN(CC1CCCCCC1)C(N)=O` [Example 23, (S)-3-(3-((1-(Cycloheptylmethyl)ureido)methyl)-4-methylphenyl)-3-(1,4-dimethyl-1H-benzo[d][1,2,3]triazol-5-yl)-2,2-dimethylpropanoic acid], the EC50 is 1 to 10 nM. Under `CCC1CCC(O)(CN(Cc2cc([C@@H](c3ccc4c(nnn4C)c3C)C(C)(C)C(=O)O)ccc2C)C(N)=O)CC1` (stereo partly drawn) [Example 24, (S)-3-(1,4-Dimethyl-1H-benzo[d][1,2,3]triazol-5-yl)-3-(3-((1-((4-ethyl-1-hydroxycyclohexyl)methyl)ureido)methyl)-4-methylphenyl)-2,2-dimethylpropanoic acid] stands 10 to 100 nM; under `Cc1ccc([C@@H](c2ccc3c(nnn3C)c2C)C(C)(C)C(=O)O)cc1CN(CC1(O)CCCCCC1)C(N)=O` [Example 25, (S)-3-(1,4-Dimethyl-1H-benzo[d][1,2,3]triazol-5-yl)-3-(3-((1-((1-hydroxycycloheptyl)methyl)ureido)methyl)-4-methylphenyl)-2,2-dimethylpropanoic acid], 100 to 1000 nM. Consider `CC(=O)N(Cc1cc(C(c2ccc3c(nnn3C)c2C)C(C)(C)C(=O)O)ccc1C)CC1(O)CCCCC1` (centres unmarked) [Example 26, 3-(1,4-Dimethyl-1H-benzo[d][1,2,3]triazol-5-yl)-3-(3-((N-((1-hydroxycyclohexyl)methyl)acetamido)methyl)-4-methylphenyl)-2,2-dimethylpropanoic acid], for which the EC50 fell in the range of 100 to 1000 nM.

With `CC(=O)N(Cc1cc(C(CC(=O)O)c2ccc3c(nnn3C)c2C)ccc1C)CC1CCCCCC1` (centres unmarked) [Example 27, 3-(3-((N-(Cycloheptylmethyl)acetamido)methyl)-4-methylphenyl)-3-(1,4-dimethyl-1H-benzo[d][1,2,3]triazol-5-yl)propanoic acid], the EC50 is 100 to 1000 nM.
